This passage reports EC50 results from patent publication US11230526B1, “Cylcoalkenyl derivatives useful as agonists of the GPR120 and/or GPR40 receptors” (Janssen Pharmaceutica NV, priority 2018, dated 2022).

The structures appear in SMILES notation. Values joined by “and” are separate entries in the source; they are usually repeats but may differ in a detail not shown here. Identical values can stand only once.

Common to all, as to type: cell-based
One assay concerns the target T1, human GPR40 (Homo sapiens, UniProt O14842).
T1 construct: expressed in transfected cells
The assay can be described thus: GPR40 calcium flux assay, human GPR40. Conditions: HEK293 cells stably expressing GPR40; table does not say human or rat. In outline:
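Cells preincubated 1 h at 37° C. in HBSS, 20 mM HEPES, 0.1% BSA, then Fluo 8 calcium dye 30 min at 37° C. and 15 min at room temperature.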

In assay [1] the target is T2, Human GPR120 short form (Homo sapiens, UniProt Q5NUL3).
T2 construct: expressed in transfected cells
T2 sequence (Q5NUL3 1-361): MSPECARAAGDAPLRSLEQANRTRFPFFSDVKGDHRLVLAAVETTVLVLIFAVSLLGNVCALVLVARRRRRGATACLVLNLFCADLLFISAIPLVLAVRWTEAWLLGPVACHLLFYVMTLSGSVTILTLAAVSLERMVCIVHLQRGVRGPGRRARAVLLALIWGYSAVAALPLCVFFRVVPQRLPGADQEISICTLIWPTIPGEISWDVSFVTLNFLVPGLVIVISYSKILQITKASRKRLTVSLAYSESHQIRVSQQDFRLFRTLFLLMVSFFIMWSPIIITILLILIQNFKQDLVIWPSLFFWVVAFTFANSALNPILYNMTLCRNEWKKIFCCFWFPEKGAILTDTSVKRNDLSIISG
The assay can be described thus: Human GPR120 calcium flux assay, Procedure Calcium B (4200 cells/well). In outline: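 HEK293 cells stably expressing human GPR120 (NM_001195755.1), 4200 cells/well, starved 1 h and loaded with Fluo-4 NW plus probenecid. Ligand-evoked calcium flux read on FLIPR for 300 s after a 10 s baseline. RFU = Fmax−Fmin; EC50 from four-parameter concentration-response fit.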

For assay [2], the target named is T2, Human GPR120 short form. The assay can be described thus: Human GPR120 calcium flux assay, Procedure Calcium A (2500 cells/well). A digest of the protocol:
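HEK293 cells stably expressing human GPR120 short isoform (NM_001195755.1), 2500 cells/well, serum-starved 1 h at 37 °C and loaded with Fluo-4 NW plus probenecid. FLIPR fluorescence read for 300 s after compound addition; response = Fmax−Fmin. EC50 from four-parameter concentration–response fit.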

T1 sequence (O14842 whole entry): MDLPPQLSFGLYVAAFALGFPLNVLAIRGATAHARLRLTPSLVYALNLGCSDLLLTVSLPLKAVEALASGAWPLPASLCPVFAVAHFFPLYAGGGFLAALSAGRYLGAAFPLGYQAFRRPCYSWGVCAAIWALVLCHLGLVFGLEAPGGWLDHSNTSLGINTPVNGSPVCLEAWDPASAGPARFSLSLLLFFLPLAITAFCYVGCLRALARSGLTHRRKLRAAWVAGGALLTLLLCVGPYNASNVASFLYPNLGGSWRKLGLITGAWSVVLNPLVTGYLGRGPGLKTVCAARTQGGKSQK

Regarding `O=C(O)CCc1ccc(OCC2=C(c3ccc(Cl)cc3)CCCC2)c(F)c1F` [Compound 513, 3-[4-[[2-(4-chlorophenyl)cyclohexen-1-yl]methoxy]-2,3-difluoro-phenyl]Propanoic Acid], the values for the EC50 on human GPR40, at Human GPR120 short form [1] and at Human GPR120 short form [2] were above 5 µM, 42 nM and 331 nM, respectively.
As to `O=C(O)CCc1ccc(OCC2=C(c3ccc(Cl)cc3)CCC2)c(F)c1F` [Compound 70, 3-[4-[[2-(4-chlorophenyl)cyclopenten-1-yl]methoxy]-2,3-difluoro-phenyl]Propanoic Acid], the EC50 at human GPR40 is above 5 µM; at Human GPR120 short form [1] it was 23 nM; at Human GPR120 short form [2], 344 nM.
For `COc1cc(F)cc(C2=C(COc3ccc(CCC(=O)O)c(C)c3C)CCC2)c1` [Compound 65, 3-[4-[[2-(3-fluoro-5-methoxy-phenyl)cyclopenten-1-yl]methoxy]-2,3-dimethyl-phenyl]Propanoic Acid], the EC50 is above 5 µM on human GPR40, 614 nM at Human GPR120 short form [1] and 2490 nM on Human GPR120 short form [2].
Turning to `Cc1ccc(C2=C(COc3ccc(CCC(=O)O)cc3C)CCC2)cn1` [Compound 102, 3-(3-methyl-4-((2-(6-methylpyridin-3-yl)cyclopent-1-en-1-yl)methoxy)phenyl)Propanoic Acid], the EC50 was above 5 µM on human GPR40, 134 nM at Human GPR120 short form [1] and 781 nM at Human GPR120 short form [2].
On to `Cc1ccc(C2=C(COc3ccc(CCC(=O)O)c(F)c3F)CCC2)cc1` [Compound 94, 3-(2,3-difluoro-4-((2-(p-tolyl)cyclopent-1-en-1-yl)methoxy)phenyl)Propanoic Acid], for which the EC50 was above 5 µM on human GPR40, 23 nM at Human GPR120 short form [1] and 400 nM on Human GPR120 short form [2].
With `O=C(O)CCc1c(F)c(F)c(OCC2=C(c3ccc(Cl)cc3)CCC2)c(F)c1F` [Compound 122, 3-[4-[[2-(4-chlorophenyl)cyclopenten-1-yl]methoxy]-2,3,5,6-tetrafluoro-phenyl]Propanoic Acid], the EC50 at human GPR40 is above 5 µM; at Human GPR120 short form [1] it was 247 nM; at Human GPR120 short form [2] it was 453 nM.
As for `Cc1c(CCC(=O)O)ccc(OCC2=C(c3ccccc3Cl)CCC2)c1C` [Compound 76, 3-[4-[[2-(2-chlorophenyl)cyclopenten-1-yl]methoxy]-2,3-dimethyl-phenyl]Propanoic Acid], the EC50 at human GPR40 was above 10 µM; at Human GPR120 short form [1], 136 nM; at Human GPR120 short form [2] it was 542 nM.
For `Cc1cc(CCC(=O)O)ccc1OCC1=C(c2ccc(Cl)cc2)CCC1` [Compound 62, 3-[4-[[2-(4-chlorophenyl)cyclopenten-1-yl]methoxy]-3-methyl-phenyl]Propanoic Acid], the EC50 at human GPR40 is above 5 µM; on Human GPR120 short form [1] it was 27 nM; on Human GPR120 short form [2], 136 nM.
Turning to `Cc1c(CCC(=O)O)ccc(OCC2=C(c3ccc(Cl)cc3)CCC(F)(F)C2)c1C` [Compound 468, 3-[4-[[2-(4-chlorophenyl)-5,5-difluoro-cyclohexen-1-yl]methoxy]-2,3-dimethyl-phenyl]Propanoic Acid], the EC50 is above 5 µM on human GPR40; 56 nM and 54 nM at Human GPR120 short form [1]; 261 nM at Human GPR120 short form [2].
On to `Cc1c(CCC(=O)O)ccc(OCC2=C(c3ccccc3Br)CCC2)c1C` [Compound 111, 3-[4-[[2-(2-bromophenyl)cyclopenten-1-yl]methoxy]-2,3-dimethyl-phenyl]Propanoic Acid], for which the EC50 is above 5 µM at human GPR40, 687 nM on Human GPR120 short form [1] and 777 nM on Human GPR120 short form [2].
As to `Cc1c(CCC(=O)O)ccc(OCC2=C(c3cccc(Cl)c3)CCC2)c1C` [Compound 58, 3-[4-[[2-(3-chlorophenyl)cyclopenten-1-yl]methoxy]-2,3-dimethyl-phenyl]Propanoic Acid], the results for the EC50 at human GPR40, at Human GPR120 short form [1] and at Human GPR120 short form [2] were above 10 µM, 159 nM and 546 nM, respectively.
Regarding `COc1cccc(C2=C(COc3ccc(CCC(=O)O)c(C)c3C)CCC2)c1` [Compound 141, 3-[4-[[2-(3-methoxyphenyl)cyclopenten-1-yl]methoxy]-2,3-dimethyl-phenyl]Propanoic Acid], the EC50 is above 5 µM at human GPR40, 256 nM on Human GPR120 short form [1] and 1060 nM at Human GPR120 short form [2].
For `O=C(O)CCc1cc(F)c(OCC2=C(c3ccc(Cl)cc3)CCC2)c(F)c1` [Compound 60, 3-[4-[[2-(4-chlorophenyl)cyclopenten-1-yl]methoxy]-3,5-difluoro-phenyl]Propanoic Acid], in that order: above 5 µM, 103 nM and 550 nM.
As for `Cc1c(CCC(=O)O)ccc(OCC2=C(c3cccnc3)CCC2)c1C` [Compound 108, 3-[2,3-dimethyl-4-[[2-(3-pyridyl)cyclopenten-1-yl]methoxy]phenyl]Propanoic Acid], the EC50 was above 5 µM on human GPR40, 233 nM on Human GPR120 short form [1] and 1050 nM on Human GPR120 short form [2].
As to `Cc1c(CCC(=O)O)ccc(OCC2=C(c3ccccn3)CCC2)c1C` [Compound 147, 3-[2,3-dimethyl-4-[[2-(2-pyridyl)cyclopenten-1-yl]methoxy]phenyl]Propanoic Acid], the EC50 at human GPR40 is above 5 µM; at Human GPR120 short form [1] it was 336 nM; at Human GPR120 short form [2], 1010 nM.
Taken in the same sequence, the figures for `O=C(O)CCc1c(F)c(F)c(OCC2=C(c3ccc(Cl)cc3)CCCC2)c(F)c1F` [Compound 479, 3-[4-[[2-(4-chlorophenyl)cyclohexen-1-yl]methoxy]-2,3,5,6-tetrafluoro-phenyl]Propanoic Acid] were above 5 µM, 73 nM and 958 nM.
